Where two headings read alike, the source gives them in different places.
How the values were obtained:
influenza virus = format: cell-based; conditions: 1.23 mg/ml

In the case of `CCOC(=O)C1=C[C@@H](OC(CC)CC)[C@H](NC(C)=O)[C@@H](N)C1` [Tamiflu, oseltamivir], the antiviral activity (influenza virus) is reported as “no antiviral activity”, the cytotoxicity (MDCK cells) is reported as “comparatively high cytotoxicity” and the “Cell viability (%)” value (MDCK cells; 0.14 mg/ml) is reported as 64.02%. For the same molecule, the “Cell viability (%)” value (MDCK cells; 0.41 mg/ml) was 54.94%, the “Cell viability (%)” value (MDCK cells; 1.23 mg/ml) was 20.83% and the cytotoxicity (MDCK cells; 1.23 mg/ml) was “showed high cytotoxicity”.

— patent US8623426B2, “Composition for preventing or treating diseases caused by influenza viruses” (Korea Institute of Oriental Medicine, priority 2009, dated 2014)
